± gives the standard deviation of the averaged measurements.
Legend:
[1] = system: HSC1 (primary human Schwann cells); experiment: drug sensitivity score (DSS, CellTiter-Glo viability, 72 h) (DSS (dimensionless)); higher = more sensitive; extreme values may be limits of the assay
Summary of the method: (§1)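 Viability was scored by CellTiter-Glo ATP luminescence, scaled from vehicle to positive-control wells, with duplicates averaged where present. The cells, MPNST lines and primary human Schwann cells at 750–1000 per well, sat 72 h at 37 °C, 5% CO2, in 384-well plates preprinted with each compound at five concentrations in 10-fold steps. Four-parameter logistic fits were run on the data. These fits give drug sensitivity score and relative IC50 censored at the top concentration, and percent inhibition is reported at the top concentration.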

[2] = system: HSC2 (primary human Schwann cells); experiment: as above
Summary of the method: as §1

[3] = system: S1507-2; experiment: as above
Summary of the method: as §1

[4] = system: S462; experiment: as above
Summary of the method: as §1

[5] = system: ST8814; experiment: as above
Summary of the method: as §1

[6] = system: STS26T; experiment: as above
Summary of the method: as §1

[7] = system: HSC1 (primary human Schwann cells); experiment: drug sensitivity score (DSS, CellTox-Green cytotoxicity, 72 h) (DSS (dimensionless)); higher = more cytotoxic; extreme values may be limits of the assay
Summary of the method: (§2)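 MPNST cell lines and primary human Schwann cells were incubated 72 h at 37 °C in 384-well plates holding five 10-fold compound dilutions. CellTox-Green was added before seeding at a final 1:1000 dilution and reported fluorescence from DNA released by disrupted cells. Signals were scaled to vehicle and positive-control wells, and cultures failing plate quality control were dropped. Drug sensitivity score and relative IC50 come from four-parameter logistic fits, with IC50 censored at the top concentration.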

[8] = system: HSC2 (primary human Schwann cells); experiment: as above
Summary of the method: as §2

[9] = system: S1507-2; experiment: as above
Summary of the method: as §2

[10] = system: ST8814; experiment: as above
Summary of the method: as §2

[11] = system: STS26T; experiment: as above
Summary of the method: as §2

[12] = system: HSC1 (primary human Schwann cells); experiment: % inhibition of CellTiter-Glo viability at highest tested concentration (72 h), relative to DMSO and benzethonium chloride controls; higher = more inhibition
Summary of the method: as §1

[13] = system: HSC2 (primary human Schwann cells); experiment: as above
Summary of the method: as §1

[14] = system: S1507-2; experiment: as above
Summary of the method: as §1

[15] = system: S462; experiment: as above
Summary of the method: as §1

[16] = system: ST8814; experiment: as above
Summary of the method: as §1

[17] = system: STS26T; experiment: as above
Summary of the method: as §1

[18] = system: HS-PSS; experiment: drug sensitivity score (DSS, CellTiter-Glo viability, 72 h) (DSS (dimensionless)); higher = more sensitive; extreme values may be limits of the assay
Summary of the method: as §1

[19] = system: HS-Sch-2; experiment: as above
Summary of the method: as §1

[20] = system: YST-1; experiment: as above
Summary of the method: as §1

[21] = system: HS-PSS; experiment: drug sensitivity score (DSS, CellTox-Green cytotoxicity, 72 h) (DSS (dimensionless)); higher = more cytotoxic; extreme values may be limits of the assay
Summary of the method: as §2

[22] = system: HS-PSS; experiment: % inhibition of CellTiter-Glo viability at highest tested concentration (72 h), relative to DMSO and benzethonium chloride controls; higher = more inhibition
Summary of the method: as §1

[23] = system: HS-Sch-2; experiment: as above
Summary of the method: as §1

SMILES	drug sensitivity score [1]	drug sensitivity score [2]	drug sensitivity score [3]	drug sensitivity score [4]	drug sensitivity score [5]	drug sensitivity score [6]	drug sensitivity score [7]	drug sensitivity score [8]	drug sensitivity score [9]	drug sensitivity score [10]	drug sensitivity score [11]	% inhibition [12] [%]	% inhibition [13] [%]	% inhibition [14] [%]	% inhibition [15] [%]	% inhibition [16] [%]	% inhibition [17] [%]	drug sensitivity score [18]	drug sensitivity score [19]	drug sensitivity score [20]	drug sensitivity score [21]	% inhibition [22] [%]	% inhibition [23] [%]
C[C@H]1C=C2C(=O)O[C@H]3CC[C@@H](C1)[C@@]23O [Galiellalactone] (max concentration tested 50000 nM)	11.2	7.95	7.75 ± 0.57	9.23 ± 1.4	7.08	9.38	0.367	0	2.69 ± 1.4	0	2.26	97.6	98.5	92.8 ± 14	100 ± 2.5	88.9	101	–	–	–	–	–	–
N[C@@H](CSC(c1ccccc1)(c1ccccc1)c1ccccc1)C(=O)O [S-trityl-L-cysteine] (max concentration tested 40000 nM)	0.233	0	0	0.0379 ± 0.054	0	0.0666	0	0	0	0	0	14.8	-1.33	3.83 ± 4.3	8.17 ± 9.1	7.25	13	–	–	–	–	–	–
CN(C)C(=N)NC(=N)N [Metformin aq] (max concentration tested 100000 nM)	0	0	0	0	0	0	0	0	0.0766 ± 0.11	0	0	-13.1	-15.5	6.36 ± 5.3	1.42 ± 6.1	7.41	5.16	–	–	–	–	–	–
CCN(CC)CCCC(C)Nc1ccnc2cc(Cl)ccc12 (stereo not drawn) [Chloroquine aq] (max concentration tested 100000 nM)	9.99	9.45	20.19 ± 0.053	13 ± 1.7	17.4	14.5	9.24	8.02	18.3 ± 0.29	18.6	15.1	94.7	94.5	95.13 ± 0.85	95.68 ± 0.34	96.1	96.2	–	–	–	–	–	–
COCC1(CO)C(=O)C2CCN1CC2 (stereo not drawn) [Prima-1 Met] (max concentration tested 10000 nM)	1.87	2.14	2.75 ± 3.9	1.58 ± 1.1	0	0.507	0	0	7.59 ± 11	0	0	26.3	32.4	6.31 ± 9.8	19.1 ± 8.4	8.31	14.6	–	–	–	–	–	–
CCNC(=O)c1noc(-c2cc(C(C)C)c(O)cc2O)c1-c1ccc(CN2CCOCC2)cc1 [NVP-AUY922] (max concentration tested 1000 nM)	21.6	22.6	20.5 ± 1.9	19.7 ± 3.3	19.4	18.3	19.6	20.4	20.6 ± 3.5	8.57	11.4	98.2	97.1	97.933 ± 0.086	98 ± 1.7	98.2	92.2	–	–	–	–	–	–
Cn1cnc2c(F)c(Nc3ccc(Br)cc3F)c(C(=O)NOCCO)cc21 [MEK-162] (max concentration tested 1000 nM)	0.0621	0	1.31 ± 1.3	2.73 ± 0.038	1.66	2.04	0	0	0	0	0	15.1	-2.17	19.9 ± 8.2	29.8 ± 0.71	23.8	24.5	–	–	–	–	–	–
Cc1ccc(C(=O)Nc2ccc(CN3CCN(C)CC3)c(C(F)(F)F)c2)cc1C#Cc1cnc2cccnn12 [Ponatinib] (max concentration tested 1000 nM)	6.62	6.49	6.1 ± 0.6	5.51 ± 0.34	8.31	3.91	–	–	–	–	–	–	–	–	–	–	–	2.2	5.57	4.76	–	–	–
CS(=O)(=O)N1CCN(Cc2cc3nc(-c4cccc5[nH]ncc45)nc(N4CCOCC4)c3s2)CC1 [Pictilisib] (max concentration tested 10000 nM)	7.89	7.76	13.4 ± 2.3	6.98 ± 0.18	9.07	13.3	0	0	0.342 ± 0.48	1.86	0	78.7	83.3	–	68.53 ± 0.23	–	–	5.78	4.35	14.6	0	52.1	51

— the supplement of paper PMC5579334
